Reference: the NIST ThermoML archive (doi:10.1021/acs.jced.8b00524)

Test: xn = mol fraction of the nth substance listed
Conditions: 100 kPa, Liquid; for viscosity: Concentric cylinders viscometry; for mass density: Vibrating tube method

CCCCOC(C)=O [butyl ethanoate] + CCCCCCO
Conditions	mass density [kg/m3]	viscosity [mPa·s]
293.15 K, x1 = 0.0811	823.6	4.7
293.15 K, x1 = 0.1602	828.4	4.14
293.15 K, x1 = 0.2398	833.3	3.64
293.15 K, x1 = 0.3507	840.1	3.04
293.15 K, x1 = 0.4402	845.7	2.63
293.15 K, x1 = 0.5596	853.1	2.16
293.15 K, x1 = 0.6504	858.9	1.84
293.15 K, x1 = 0.7398	864.5	1.55
293.15 K, x1 = 0.8507	871.6	1.2
293.15 K, x1 = 0.9397	877.2	0.92
293.15 K, x1 = 1	881.1	0.732
298.15 K, x1 = 0.0811	819.8	3.99
298.15 K, x1 = 0.1602	824.4	3.5
298.15 K, x1 = 0.2398	829.1	3.06
298.15 K, x1 = 0.3507	835.8	2.56
298.15 K, x1 = 0.4402	841.2	2.22
298.15 K, x1 = 0.5596	848.5	1.82
298.15 K, x1 = 0.6504	854	1.56
298.15 K, x1 = 0.7398	859.6	1.32
298.15 K, x1 = 0.8507	866.5	1.05
298.15 K, x1 = 0.9397	872.1	0.83
298.15 K, x1 = 1	876	0.677
303.15 K, x1 = 0.0811	815.9	3.41
303.15 K, x1 = 0.1602	820.3	2.99
303.15 K, x1 = 0.2398	824.8	2.61
303.15 K, x1 = 0.3507	831.2	2.18
303.15 K, x1 = 0.4402	836.5	1.89
303.15 K, x1 = 0.5596	843.6	1.56
303.15 K, x1 = 0.6504	849.1	1.34
303.15 K, x1 = 0.7398	854.5	1.15
303.15 K, x1 = 0.8507	861.3	0.93
303.15 K, x1 = 0.9397	866.9	0.76
303.15 K, x1 = 1	870.9	0.628
308.15 K, x1 = 0.0811	812	2.94
308.15 K, x1 = 0.1602	816.2	2.57
308.15 K, x1 = 0.2398	820.6	2.24
308.15 K, x1 = 0.3507	826.7	1.86
308.15 K, x1 = 0.4402	831.8	1.61
308.15 K, x1 = 0.5596	838.7	1.33
308.15 K, x1 = 0.6504	844	1.16
308.15 K, x1 = 0.7398	849.4	1
308.15 K, x1 = 0.8507	856.2	0.82
308.15 K, x1 = 0.9397	861.7	0.69
308.15 K, x1 = 1	865.7	0.585
313.15 K, x1 = 0.0811	808	2.54
313.15 K, x1 = 0.1602	811.9	2.21
313.15 K, x1 = 0.2398	816	1.93
313.15 K, x1 = 0.3507	821.8	1.61
313.15 K, x1 = 0.4402	826.7	1.41
313.15 K, x1 = 0.5596	833.5	1.18
313.15 K, x1 = 0.6504	838.8	1.04
313.15 K, x1 = 0.7398	844.1	0.92
313.15 K, x1 = 0.8507	850.9	0.76
313.15 K, x1 = 0.9397	856.4	0.63
313.15 K, x1 = 1	860.5	0.546
318.15 K, x1 = 0.0811	804.2	2.21
318.15 K, x1 = 0.1602	807.9	1.92
318.15 K, x1 = 0.2398	811.7	1.68
318.15 K, x1 = 0.3507	817.4	1.4
318.15 K, x1 = 0.4402	822.1	1.23
318.15 K, x1 = 0.5596	828.6	1.05
318.15 K, x1 = 0.6504	833.8	0.93
318.15 K, x1 = 0.7398	839	0.83
318.15 K, x1 = 0.8507	845.7	0.7
318.15 K, x1 = 0.9397	851.2	0.59
318.15 K, x1 = 1	855.3	0.512
323.15 K, x1 = 0.0811	800.1	1.96
323.15 K, x1 = 0.1602	803.5	1.71
323.15 K, x1 = 0.2398	807.2	1.49
323.15 K, x1 = 0.3507	812.5	1.25
323.15 K, x1 = 0.4402	817.1	1.09
323.15 K, x1 = 0.5596	823.5	0.93
323.15 K, x1 = 0.6504	828.6	0.83
323.15 K, x1 = 0.7398	833.8	0.75
323.15 K, x1 = 0.8507	840.4	0.65
323.15 K, x1 = 0.9397	846	0.56
323.15 K, x1 = 1	850.1	0.485

CCCCCCCCCCO [decan-1-ol] + CCCCOC(C)=O
Conditions	mass density [kg/m3]	viscosity [mPa·s]
293.15 K, x2 = 0	829.5	14.42
293.15 K, x2 = 0.0809	832	12.8
293.15 K, x2 = 0.1599	834.6	11.41
293.15 K, x2 = 0.2401	837.6	10.07
293.15 K, x2 = 0.3499	842	8.41
293.15 K, x2 = 0.4401	846	7.18
293.15 K, x2 = 0.5598	851.9	5.67
293.15 K, x2 = 0.6499	856.8	4.62
293.15 K, x2 = 0.7401	862.3	3.6
293.15 K, x2 = 0.8499	869.6	2.38
293.15 K, x2 = 0.9399	876.2	1.38
298.15 K, x2 = 0	826.1	11.8
298.15 K, x2 = 0.0809	828.4	10.44
298.15 K, x2 = 0.1599	830.9	9.29
298.15 K, x2 = 0.2401	833.7	8.2
298.15 K, x2 = 0.3499	838	6.86
298.15 K, x2 = 0.4401	841.8	5.87
298.15 K, x2 = 0.5598	847.5	4.61
298.15 K, x2 = 0.6499	852.3	3.75
298.15 K, x2 = 0.7401	857.5	2.94
298.15 K, x2 = 0.8499	864.7	1.97
298.15 K, x2 = 0.9399	871.1	1.19
303.15 K, x2 = 0	822.7	9.76
303.15 K, x2 = 0.0809	824.8	8.61
303.15 K, x2 = 0.1599	827.1	7.62
303.15 K, x2 = 0.2401	829.7	6.71
303.15 K, x2 = 0.3499	833.8	5.59
303.15 K, x2 = 0.4401	837.5	4.78
303.15 K, x2 = 0.5598	843	3.75
303.15 K, x2 = 0.6499	847.6	3.06
303.15 K, x2 = 0.7401	852.7	2.4
303.15 K, x2 = 0.8499	859.6	1.64
303.15 K, x2 = 0.9399	866	1.04
308.15 K, x2 = 0	819.3	8.14
308.15 K, x2 = 0.0809	821.2	7.15
308.15 K, x2 = 0.1599	823.4	6.31
308.15 K, x2 = 0.2401	825.8	5.54
308.15 K, x2 = 0.3499	829.6	4.61
308.15 K, x2 = 0.4401	833.1	3.93
308.15 K, x2 = 0.5598	838.5	3.11
308.15 K, x2 = 0.6499	842.9	2.54
308.15 K, x2 = 0.7401	847.9	2.02
308.15 K, x2 = 0.8499	854.6	1.4
308.15 K, x2 = 0.9399	860.8	0.9
313.15 K, x2 = 0	815.8	6.84
313.15 K, x2 = 0.0809	817.3	5.99
313.15 K, x2 = 0.1599	819.2	5.27
313.15 K, x2 = 0.2401	821.4	4.62
313.15 K, x2 = 0.3499	824.9	3.83
313.15 K, x2 = 0.4401	828.2	3.28
313.15 K, x2 = 0.5598	833.2	2.59
313.15 K, x2 = 0.6499	837.5	2.15
313.15 K, x2 = 0.7401	842.4	1.71
313.15 K, x2 = 0.8499	849.1	1.22
313.15 K, x2 = 0.9399	855.3	0.81
318.15 K, x2 = 0	812.4	5.8
318.15 K, x2 = 0.0809	813.7	5.06
318.15 K, x2 = 0.1599	815.3	4.45
318.15 K, x2 = 0.2401	817.2	3.89
318.15 K, x2 = 0.3499	820.3	3.22
318.15 K, x2 = 0.4401	823.4	2.75
318.15 K, x2 = 0.5598	828.2	2.18
318.15 K, x2 = 0.6499	832.4	1.8
318.15 K, x2 = 0.7401	837.2	1.45
318.15 K, x2 = 0.8499	843.9	1.05
318.15 K, x2 = 0.9399	850.2	0.73
323.15 K, x2 = 0	808.9	4.96
323.15 K, x2 = 0.0809	809.9	4.31
323.15 K, x2 = 0.1599	811.3	3.79
323.15 K, x2 = 0.2401	813	3.3
323.15 K, x2 = 0.3499	815.9	2.72
323.15 K, x2 = 0.4401	818.8	2.32
323.15 K, x2 = 0.5598	823.4	1.84
323.15 K, x2 = 0.6499	827.3	1.53
323.15 K, x2 = 0.7401	832.1	1.25
323.15 K, x2 = 0.8499	838.7	0.92
323.15 K, x2 = 0.9399	844.9	0.66
